*1 amine or outer side, *2 acyl side, *3 side chain or, on linkers, in order; H or OH if unused. Where a SMILES comes first, the peptide text is derived from it. Side-chain parts run from the residue outwards. The star is where a group is joined. C18 diacid = O=C(O)CCCCCCCCCCCCCCCCC(=O)*; γGlu = O=C(O)[C@H](CCC(=O)[*:2])N[*:1]; Isovaleryl = CC(C)CC(=O)*; Ahx = NCCCCCC(=O)O
Tests used:
[1] = target: T1, human NPY5 receptor (hY5R) (Homo sapiens, UniProt Q15761); assay: HTRF cAMP Gi assay, hY5R
T1 sequence (Q15761 1-445): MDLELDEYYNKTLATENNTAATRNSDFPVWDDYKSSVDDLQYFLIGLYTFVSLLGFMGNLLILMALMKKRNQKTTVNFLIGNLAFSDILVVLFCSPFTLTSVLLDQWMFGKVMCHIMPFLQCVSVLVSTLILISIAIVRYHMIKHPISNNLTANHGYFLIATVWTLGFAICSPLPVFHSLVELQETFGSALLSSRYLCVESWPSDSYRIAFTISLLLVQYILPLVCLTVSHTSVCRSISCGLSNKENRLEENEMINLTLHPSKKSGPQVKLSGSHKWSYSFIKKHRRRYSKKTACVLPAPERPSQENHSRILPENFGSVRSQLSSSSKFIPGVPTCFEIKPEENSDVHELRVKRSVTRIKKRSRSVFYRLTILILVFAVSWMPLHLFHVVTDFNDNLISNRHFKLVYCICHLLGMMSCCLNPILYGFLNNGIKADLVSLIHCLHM

[2] = target: T2, Human Neuropeptide Y2 Receptor (Homo sapiens, UniProt P49146); assay: Radioligand binding competition assay (RLB); conditions: Table 3, 125I-PYY(1-36) competition; read-out: Ki
T2 construct: purchased CHEMICON HTS066M
T2 sequence (P49146 1-381): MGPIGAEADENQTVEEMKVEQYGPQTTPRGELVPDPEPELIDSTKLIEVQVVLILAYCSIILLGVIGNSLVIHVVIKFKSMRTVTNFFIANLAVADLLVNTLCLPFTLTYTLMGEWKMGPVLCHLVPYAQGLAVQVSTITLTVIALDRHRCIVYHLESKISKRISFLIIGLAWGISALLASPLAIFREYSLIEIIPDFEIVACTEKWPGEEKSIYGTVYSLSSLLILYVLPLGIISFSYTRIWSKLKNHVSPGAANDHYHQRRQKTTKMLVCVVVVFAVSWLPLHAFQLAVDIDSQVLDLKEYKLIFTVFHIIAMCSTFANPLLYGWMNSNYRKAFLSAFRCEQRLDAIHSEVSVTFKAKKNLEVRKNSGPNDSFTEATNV
In short: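 IC50 values come from sigmoidal dose-response fits of scintillation counts after peptides competed for radioligand binding at receptor membranes (0.5 μg protein/well). Incubation ran 2 h at room temperature in HEPES buffer, pH 7.4, with Mg2+, Ca2+ and 0.2% ovalbumin.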

[3] = Solubility determination; conditions: for Sol6: pH 6; for Sol7: pH 7
In short: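 Sample: TFA-salt peptide at 10 mg/ml target in 0.1 M Na diphosphate, pH 6.4 or 7.0, shaken 2 h RT, filtered, diluted to 1 mg/ml.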

| EC50 [1] [µM] | Ki [2] [nM] | Sol6 [3] [mg/mL] | Sol7 [3] [mg/mL] | Structure (SMILES) |
| --- | --- | --- | --- | --- |
| > 5 | 1.41 | 9.9 | 9.3 | CC[C@H](C)[C@H](NC(=O)[C@H](CCC(=O)O)NC(=O)[C@H](CCC(=O)O)NC(=O)[C@@H]1CCCN1C(=O)[C@H](CO)NC(=O)[C@H](C)NC(=O)[C@H](CC(=O)O)NC(=O)[C@H](C)NC(=O)[C@H](CCC(=O)O)NC(=O)[C@@H]1CCCN1C(=O)[C@H](CCCCNC(=O)CCCCCNC(=O)CC[C@H](NC(=O)CCCCCCCCCCCCCCCCC(=O)O)C(=O)O)NC(=O)[C@H](CCC(=O)O)NC(=O)[C@@H]1CCCN1C(=O)[C@H](C)NC(=O)CC(C)C)C(=O)N[C@@H](CCC(N)=O)C(=O)N[C@@H](CCCNC(=N)N)C(=O)N[C@@H](Cc1ccc(O)cc1)C(=O)N[C@@H](Cc1ccc(O)cc1)C(=O)N[C@H](C(=O)N[C@@H](CO)C(=O)N[C@@H](CC(C)C)C(=O)N[C@@H](CCCNC(=N)N)C(=O)N[C@@H](Cc1c[nH]cn1)C(=O)N[C@@H](Cc1ccc(O)cc1)C(=O)N[C@@H](Cc1ccc(O)cc1)C(=O)N[C@@H](CC(N)=O)C(=O)N[C@@H](Cc1c[nH]c2ccccc12)C(=O)N[C@@H](CC(C)C)C(=O)N[C@H](C(=O)N[C@@H](CCCNC(=N)N)C(=O)N[C@@H](CCC(N)=O)C(=O)N[C@@H](CCCNC(=N)N)C(=O)N[C@@H](Cc1ccc(O)cc1)C(N)=O)[C@@H](C)O)C(C)C [Compound 140, N{alpha-4}-(3-methylbutanoyl)-N{epsilon-7}-(6-[(4S)-4-carboxy-4-(17-carboxyheptadecanamido)butanamido]hexanoyl)-[4A,7K,9E,10A,17I,18Q,22V,28Y,30W,31L]-hPYY(4-36)] |
| > 5 | 2.68 | 10.0 | 10.0 | CC[C@H](C)[C@H](NC(=O)[C@H](Cc1ccc(O)cc1)NC(=O)[C@H](Cc1ccc(O)cc1)NC(=O)[C@H](CCCNC(=N)N)NC(=O)[C@H](CCC(N)=O)NC(=O)[C@H](CC(C)C)NC(=O)[C@H](CCC(=O)O)NC(=O)[C@H](CCC(=O)O)NC(=O)[C@@H]1CCCN1C(=O)[C@H](CO)NC(=O)[C@H](C)NC(=O)[C@H](CC(=O)O)NC(=O)[C@H](CCC(=O)O)NC(=O)[C@H](CCC(=O)O)NC(=O)[C@@H]1CCCN1C(=O)[C@H](CCCCNC(=O)CCCCCNC(=O)CC[C@H](NC(=O)CCCCCCCCCCCCCCCCC(=O)O)C(=O)O)NC(=O)[C@H](CCC(=O)O)NC(=O)[C@@H]1CCCN1C(=O)[C@H](C)NC(=O)CC(C)C)C(=O)N[C@@H](CO)C(=O)N[C@@H](CC(C)C)C(=O)N[C@@H](CCCNC(=N)N)C(=O)N[C@@H](Cc1c[nH]cn1)C(=O)N[C@@H](Cc1ccc(O)cc1)C(=O)N[C@@H](Cc1ccc(O)cc1)C(=O)N[C@@H](CC(N)=O)C(=O)N[C@@H](Cc1c[nH]c2ccccc12)C(=O)N[C@@H](CC(C)C)C(=O)N[C@H](C(=O)N[C@@H](CCCNC(=N)N)C(=O)N[C@@H](CCC(N)=O)C(=O)N[C@@H](CCCNC(=N)N)C(=O)N[C@@H](Cc1ccc(O)cc1)C(N)=O)[C@@H](C)O [Compound 76, N{alpha-4}-(3-methylbutanoyl)-N{epsilon-7}-(6-[(4S)-4-carboxy-4-(17-carboxyheptadecanamido)butanamido]hexanoyl)-[4A,7K,9E,18Q,22I,28Y,30W,31L]-hPYY(4-36)] |
| > 5 | 3.98 | 9.3 | 9.2 | CC[C@H](C)[C@H](NC(=O)[C@H](CCC(=O)O)NC(=O)[C@H](CCC(=O)O)NC(=O)[C@@H]1CCCN1C(=O)[C@H](CO)NC(=O)[C@H](C)NC(=O)[C@H](CC(=O)O)NC(=O)[C@H](CCC(=O)O)NC(=O)[C@H](CCC(=O)O)NC(=O)[C@@H]1CCCN1C(=O)[C@H](CCCCNC(=O)CCCCCNC(=O)CC[C@H](NC(=O)CCCCCCCCCCCCCCCCC(=O)O)C(=O)O)NC(=O)[C@H](CCC(=O)O)NC(=O)[C@@H]1CCCN1C(=O)[C@H](C)NC(=O)CC(C)C)C(=O)N[C@@H](CCC(N)=O)C(=O)N[C@@H](CCC(N)=O)C(=O)N[C@@H](Cc1ccc(O)cc1)C(=O)N[C@@H](Cc1ccc(O)cc1)C(=O)N[C@H](C(=O)N[C@@H](CO)C(=O)N[C@@H](CC(C)C)C(=O)N[C@@H](CCCNC(=N)N)C(=O)N[C@@H](Cc1c[nH]cn1)C(=O)N[C@@H](Cc1ccc(O)cc1)C(=O)N[C@@H](Cc1ccc(O)cc1)C(=O)N[C@@H](CC(N)=O)C(=O)N[C@@H](Cc1c[nH]c2ccccc12)C(=O)N[C@@H](CC(C)C)C(=O)N[C@H](C(=O)N[C@@H](CCCNC(=N)N)C(=O)N[C@@H](CCC(N)=O)C(=O)N[C@@H](CCCNC(=N)N)C(=O)N[C@@H](Cc1ccc(O)cc1)C(N)=O)[C@@H](C)O)C(C)C [Compound 15, N{alpha-4}-(3-methylbutanoyl)-N{epsilon-7}-(6-[(4S)-4-carboxy-4-(17-carboxyheptadecanamido)butanamido]hexanoyl)[4A,7K,9E,17I,18Q,19Q,22V,28Y,30W,31L]-hPYY(4-36)] |
| > 5 | 4.16 | 9.4 | 9.8 | CC(C)CC(=O)N[C@@H](C)C(=O)N1CCC[C@H]1C(=O)N[C@@H](CCC(=O)O)C(=O)N[C@@H](CCCCNC(=O)CCCCCNC(=O)CC[C@H](NC(=O)CCCCCCCCCCCCCCCCC(=O)O)C(=O)O)C(=O)N1CCC[C@H]1C(=O)N[C@@H](CCC(=O)O)C(=O)N[C@@H](CCC(=O)O)C(=O)N[C@@H](CC(=O)O)C(=O)N[C@@H](C)C(=O)N[C@@H](CO)C(=O)N1CCC[C@H]1C(=O)N[C@@H](CCC(=O)O)C(=O)N[C@@H](CCC(=O)O)C(=O)N[C@@H](CC(C)C)C(=O)N[C@@H](CCC(N)=O)C(=O)N[C@@H](CCC(N)=O)C(=O)N[C@@H](Cc1ccc(O)cc1)C(=O)N[C@@H](Cc1ccc(O)cc1)C(=O)N[C@H](C(=O)N[C@@H](CO)C(=O)N[C@@H](CC(C)C)C(=O)N[C@@H](CCCNC(=N)N)C(=O)N[C@@H](Cc1c[nH]cn1)C(=O)N[C@@H](Cc1ccc(O)cc1)C(=O)N[C@@H](Cc1ccc(O)cc1)C(=O)N[C@@H](Cc1c[nH]cn1)C(=O)N[C@@H](Cc1c[nH]c2ccccc12)C(=O)N[C@@H](CC(C)C)C(=O)N[C@H](C(=O)N[C@@H](CCCNC(=N)N)C(=O)N[C@@H](CCC(N)=O)C(=O)N[C@@H](CCCNC(=N)N)C(=O)N[C@@H](Cc1ccc(O)cc1)C(N)=O)[C@@H](C)O)C(C)C [Compound 12, N{alpha-4}-(3-methylbutanoyl)-N{epsilon-7}-(6-[(4S)-4-carboxy-4-(17-carboxyheptadecanamido)butanamido]hexanoyl)[4A,7K,9E,18Q,19Q,22V,28Y,29H,30W,31L]-hPYY(4-36)] (Isovaleryl-APEK([Ahx-γGlu-C18 diacid])PEEDASPEELQQYYVSLRHYYHWLTRQRY-NH2) |
| ≥ 5 | 4.64 | 8.9 | 9.4 | CC(C)CC(=O)N[C@@H](C)C(=O)N1CCC[C@H]1C(=O)N[C@@H](CCC(=O)O)C(=O)N[C@@H](CCCCNC(=O)CCCCCNC(=O)CC[C@H](NC(=O)CCCCCCCCCCCCCCCCC(=O)O)C(=O)O)C(=O)N1CCC[C@H]1C(=O)N[C@@H](CCC(=O)O)C(=O)N[C@@H](CCC(=O)O)C(=O)N[C@@H](CC(=O)O)C(=O)N[C@@H](C)C(=O)N[C@@H](CCC(=O)O)C(=O)N1CCC[C@H]1C(=O)N[C@@H](CCC(=O)O)C(=O)N[C@@H](CCC(=O)O)C(=O)N[C@@H](CC(C)C)C(=O)N[C@@H](CCC(N)=O)C(=O)N[C@@H](CCCNC(=N)N)C(=O)N[C@@H](Cc1ccc(O)cc1)C(=O)N[C@@H](Cc1ccc(O)cc1)C(=O)N[C@H](C(=O)N[C@@H](CO)C(=O)N[C@@H](CC(C)C)C(=O)N[C@@H](CCCNC(=N)N)C(=O)N[C@@H](Cc1c[nH]cn1)C(=O)N[C@@H](Cc1ccc(O)cc1)C(=O)N[C@@H](Cc1ccc(O)cc1)C(=O)N[C@@H](Cc1c[nH]cn1)C(=O)N[C@@H](Cc1c[nH]c2ccccc12)C(=O)N[C@@H](CC(C)C)C(=O)N[C@H](C(=O)N[C@@H](CCCNC(=N)N)C(=O)N[C@@H](CCC(N)=O)C(=O)N[C@@H](CCCNC(=N)N)C(=O)N[C@@H](Cc1ccc(O)cc1)C(N)=O)[C@@H](C)O)[C@@H](C)O [Compound 91, N{alpha-4}-(3-methylbutanoyl)-N{epsilon-7}-(6-[(4S)-4-carboxy-4-(17-carboxyheptadecanamido)butanamido]hexanoyl)-[4A,7K,9E,13E,18Q,22T,28Y,29H,30W,31L]-hPYY(4-36)] (Isovaleryl-APEK([Ahx-γGlu-C18 diacid])PEEDAEPEELQRYYTSLRHYYHWLTRQRY-NH2) |

From patent US12391737B2, “Soluble NPY2 receptor agonists” (Boehringer Ingelheim International GmbH, priority 2020, dated 2025)
